Measured values from ChEMBL document CHEMBL1201862, “PubChem BioAssay data set” (2004).
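The compound was tested at five concentrations on cells cultured in 96-well plates, with a 48-hour exposure period. Abbreviation: GI50, concentration required for 50% inhibition of growth.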 Activity calls are given as the source filed them. Rule as the data show it: active = GI50 up to about 1.1 µM and inactive = higher.

Key:
Experiment in all cases: growth of human tumour cells (NCI), 48 h
786-0 = system: 786-0
A549 = system: A549
ACHN = system: ACHN
BT-549 = system: BT-549
EKVX = system: EKVX
HL-60 = system: HL-60
HT-29 = system: HT-29
Hs-578T = system: Hs-578T
KM12 = system: KM12
MCF7 = system: MCF7
MDA-N = system: MDA-N
Malme-3M = system: Malme-3M
NCI-H460 = system: NCI-H460
NCI-H522 = system: NCI-H522
SF-268 = system: SF-268
SK-MEL-28 = system: SK-MEL-28
SK-MEL-2 = system: SK-MEL-2
SK-OV-3 = system: SK-OV-3
SNB-19 = system: SNB-19
SW-620 = system: SW-620

Measured: GI50

COC(=O)C(Cc1c[nH]c2ccccc12)NP(=O)(O)OCC1OC(n2cc(F)c(=O)[nH]c2=O)CC1O (stereo not given)
inactive: 786-0 28.2 µM | A549 10.4 µM | ACHN 6.89 µM | BT-549 > 100 µM | EKVX > 100 µM | HL-60 40.9 µM | HT-29 > 100 µM | Hs-578T > 100 µM | KM12 > 96.2 µM | MCF7 7.35 µM | MDA-N > 100 µM | Malme-3M > 100 µM | NCI-H460 1.14 µM | NCI-H522 > 100 µM | SF-268 4.94 µM | SK-MEL-28 > 100 µM | SK-MEL-2 > 100 µM | SK-OV-3 > 92.5 µM | SNB-19 40.8 µM | SW-620 > 100 µM

O=C1CC(Sc2nc3ccc(I)cc3c(=O)n2Cc2ccccc2)C(=O)NN1 (stereo not given)
inactive: 786-0 15.1 µM | A549 28.4 µM | ACHN 16.6 µM | BT-549 15.7 µM | EKVX 15.8 µM | HL-60 20 µM | HT-29 18.6 µM | Hs-578T 18.5 µM | KM12 17.2 µM | MCF7 15 µM | MDA-N 18 µM | Malme-3M 18.1 µM | NCI-H460 22.8 µM | NCI-H522 1.94 µM | SF-268 15.9 µM | SK-MEL-28 17.9 µM | SK-MEL-2 17.1 µM | SK-OV-3 16 µM | SNB-19 19.3 µM | SW-620 18 µM

O=C(OCc1ccccc1)N1CCCc2c(n(S(=O)(=O)c3ccccc3)c3ccccc23)C1
inactive: 786-0 > 100 µM | A549 > 100 µM | ACHN > 100 µM | BT-549 > 100 µM | EKVX > 100 µM | HL-60 > 100 µM | HT-29 > 100 µM | Hs-578T 78.7 µM | KM12 > 100 µM | MCF7 > 100 µM | MDA-N > 100 µM | Malme-3M 57.9 µM | NCI-H460 > 100 µM | NCI-H522 29.1 µM | SF-268 > 100 µM | SK-MEL-28 > 100 µM | SK-MEL-2 > 100 µM | SK-OV-3 > 100 µM | SNB-19 > 100 µM | SW-620 > 100 µM

Cc1nc2ccccc2c(=O)n1/N=C/c1ccc(N(C)C)cc1
inactive: 786-0 71.4 µM | A549 > 100 µM | ACHN > 100 µM | BT-549 46 µM | EKVX > 100 µM | HL-60 > 100 µM | HT-29 > 100 µM | Hs-578T 15.3 µM | KM12 > 100 µM | MCF7 > 100 µM | MDA-N > 100 µM | Malme-3M > 100 µM | NCI-H460 > 100 µM | NCI-H522 15.6 µM | SF-268 33.7 µM | SK-MEL-28 > 100 µM | SK-MEL-2 > 100 µM | SK-OV-3 83.6 µM | SNB-19 24.8 µM | SW-620 > 100 µM

c1ccc2c(C3CCN(CCN4CCOCC4)C3)c[nH]c2c1 (stereo not given)
inactive: 786-0 > 100 µM | A549 > 100 µM | ACHN > 100 µM | BT-549 > 100 µM | EKVX > 100 µM | HL-60 > 100 µM | HT-29 > 100 µM | Hs-578T > 100 µM | KM12 > 100 µM | MCF7 > 100 µM | MDA-N > 100 µM | Malme-3M > 100 µM | NCI-H460 > 100 µM | NCI-H522 > 100 µM | SF-268 > 100 µM | SK-MEL-28 > 100 µM | SK-MEL-2 > 100 µM | SK-OV-3 > 100 µM | SNB-19 > 100 µM | SW-620 > 100 µM

O=[N+]([O-])c1ccc(-c2cn(-c3ccc(Cl)cc3)cn2)cc1
inactive: 786-0 16.6 µM | A549 27.4 µM | ACHN 31.6 µM | BT-549 59.2 µM | EKVX 32.7 µM | HL-60 > 100 µM | HT-29 > 100 µM | Hs-578T 41.6 µM | KM12 > 100 µM | MCF7 71.6 µM | MDA-N > 100 µM | Malme-3M > 100 µM | NCI-H460 18.5 µM | NCI-H522 3.76 µM | SF-268 14.2 µM | SK-MEL-28 > 100 µM | SK-MEL-2 > 100 µM | SK-OV-3 11.6 µM | SNB-19 67 µM | SW-620 > 100 µM

C/C(=N\NC(=O)c1ccncc1)c1ccccc1Cl
inactive: 786-0 > 100 µM | A549 > 100 µM | ACHN > 100 µM | BT-549 > 100 µM | EKVX > 100 µM | HL-60 > 100 µM | HT-29 > 100 µM | Hs-578T > 100 µM | KM12 > 100 µM | MCF7 > 100 µM | MDA-N > 100 µM | Malme-3M > 100 µM | NCI-H460 > 100 µM | NCI-H522 > 100 µM | SF-268 > 100 µM | SK-MEL-28 > 100 µM | SK-MEL-2 > 100 µM | SK-OV-3 > 100 µM | SNB-19 > 100 µM | SW-620 > 100 µM

CC(C)(C)N/N=C(/Cc1nc2c3c(ccc2nc1O)C(=O)c1ccccc1C3=O)C(=O)NC1=C(Cl)C(=O)c2ccccc2C1=O
inactive: 786-0 33.2 µM | A549 18.3 µM | ACHN 5.37 µM | BT-549 70.5 µM | EKVX 61.2 µM | HL-60 10.3 µM | HT-29 13.6 µM | Hs-578T 24.7 µM | KM12 2.7 µM | MCF7 20 µM | MDA-N 15.1 µM | Malme-3M 12.3 µM | NCI-H460 5.42 µM | NCI-H522 16.9 µM | SF-268 6.97 µM | SK-MEL-28 > 100 µM | SK-MEL-2 12.4 µM | SK-OV-3 7.16 µM | SNB-19 72.8 µM | SW-620 39.3 µM

O=c1c2ccccc2nc(-c2cc3c(cc2Cl)Sc2nccn2S3(=O)=O)n1-c1ccccc1
inactive: 786-0 30.1 µM | A549 > 100 µM | ACHN > 100 µM | BT-549 41.1 µM | EKVX 21.4 µM | HL-60 4.13 µM | HT-29 40.5 µM | Hs-578T 12.2 µM | KM12 11.1 µM | MCF7 14.2 µM | MDA-N 15.6 µM | Malme-3M > 100 µM | NCI-H460 37.3 µM | NCI-H522 > 100 µM | SF-268 7.1 µM | SK-MEL-28 21.4 µM | SK-MEL-2 18.5 µM | SK-OV-3 > 100 µM | SNB-19 40.8 µM | SW-620 13.5 µM

CC(C)(C)c1ccc(C(C)(C)C)c(N2C(=O)[C@@H]3[C@@H]4C=C[C@@H](C4)[C@]3(C)C2=O)c1
inactive: 786-0 17.4 µM | A549 41 µM | ACHN 21.5 µM | BT-549 22.4 µM | EKVX 47.3 µM | HL-60 16.4 µM | HT-29 29.2 µM | Hs-578T 24.2 µM | KM12 36.6 µM | MCF7 22.4 µM | MDA-N 14 µM | Malme-3M 21.9 µM | NCI-H460 42 µM | NCI-H522 16.1 µM | SF-268 27.9 µM | SK-MEL-28 31.3 µM | SK-MEL-2 20.6 µM | SK-OV-3 > 100 µM | SNB-19 > 100 µM | SW-620 21.1 µM
